The text below walks through data of PMC7470070, “Discovery of N-(1-(3-fluorobenzoyl)-1H-indol-5-yl)pyrazine-2-carboxamide: a novel, selective, and competitive indole-based lead inhibitor for human monoamine oxidase B” (Journal of Enzyme Inhibition and Medicinal Chemistry, 2020).

Series [1] concerns the target T1, Human recombinant MAO-B (hMAO-B) (Homo sapiens, UniProt P27338).
T1 construct: purchased Sigma-Aldrich (St. Louis, MO); host or cells: insect cells
T1 sequence (P27338 1-520): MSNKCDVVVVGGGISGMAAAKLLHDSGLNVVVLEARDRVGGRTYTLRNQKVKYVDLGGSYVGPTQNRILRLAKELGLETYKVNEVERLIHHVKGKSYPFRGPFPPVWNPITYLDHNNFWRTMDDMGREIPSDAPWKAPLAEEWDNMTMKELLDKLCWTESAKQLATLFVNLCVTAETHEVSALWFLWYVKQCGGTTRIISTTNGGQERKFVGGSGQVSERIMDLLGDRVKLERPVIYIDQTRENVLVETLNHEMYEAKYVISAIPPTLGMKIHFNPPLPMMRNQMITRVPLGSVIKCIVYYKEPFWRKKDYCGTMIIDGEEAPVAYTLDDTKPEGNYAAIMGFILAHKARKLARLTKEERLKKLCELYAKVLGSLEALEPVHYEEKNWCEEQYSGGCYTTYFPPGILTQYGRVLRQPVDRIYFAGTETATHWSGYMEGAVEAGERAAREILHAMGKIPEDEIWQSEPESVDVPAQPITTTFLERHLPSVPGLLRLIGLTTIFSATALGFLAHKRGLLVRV
Kind of series: Monoamine oxidase enzyme assay (Amplex Red), MAO-B. The class given is biochemical. The note with it: for inhibition at 10 µM: read-out: Inhibition percent of MAO-B; for IC50: as given in abstract; for SI (selectivity index), IC50 (MAO-A)/IC50 (MAO-B): selectivity for the MAO-B isoform. The procedure: (§1) The inhibitory activity of MAO-A, B enzyme of the compounds was evaluated based on previously described method. The MAO activity was measured in relative fluorescence units (RFUs) evoked by peroxidase-catalyzed oxidation of Amplex Red® to resorufin, in which H2O2 generated by MAO reaction was used as the electron donor. Human recombinant MAO-A (hMAO-A) and MAO-B (hMAO-B) enzyme expressed in insect cells were obtained from Sigma-Aldrich (St. Louis, MO). The 2 μL of test compound in DMSO (final concentration: 1 nM to 10 μM) was treated with 98 μL of hMAO enzyme solution in 50 mM sodium phosphate buffer (pH 7.4, final protein amounts: ∼1.25 μg protein/well for MAO-A and ∼2.5 μg protein/well for MAO-B) on 96-well black plate and incubated for 15 min at 37 °C. Then, 100 μL of reaction working solution which is mixed solution of 400 μM Amplex Red® (Cayman, Ann Arbor, MI, final concentration: 200 μM), 2 U/mL horseradish peroxidase (Sigma-Aldrich, St. Louis, MO, final concentration: 1 U/mL) and 2 mM substrate (p-tyramine for MAO-A, benzylamine for MAO-B, Sigma-Aldrich, St. Louis, MO, final concentration: 1 mM) in 50 mM sodium phosphate buffer (pH 7.4) were added and incubated for 20 min at 37 °C in the dark. The fluorescent intensity was quantified using a microplate reader (SpectraMax®i3, Molecular Devices, Sunnyvale, CA) with an excitation at 545 nm and an emission at 590 nm. The 50% inhibitory concentrations (IC50) of compounds were determined as the mean ± SEM in triplicate from the dose–response inhibition curves using SigmaPlot® 13.0 (Palo Alto, CA).
The target compounds 4a−l were biologically evaluated for their potential inhibitory activities over human MAO-B recombinant enzyme. The enzyme inhibition assay of the tested compounds was conducted using Amplex® Red reagent technology which offers quantitative enzyme activity sensitive detection with extended dynamic range compared to classic colorimetric oxidase assays in addition to its advantage of the fluorescence emission outside the range of compound autofluorescence (if any). Since Amplex® Red reagent is a colourless substrate able to react with H2O2 with a 1:1 stoichiometry to yield highly fluorescent resorufin, the elicited inhibitory activities of the tested compounds over MAO-B were evaluated via spectrophotometrical measurement and the fluorescence rate of the resorufin dye formation was detected. As mentioned previously, all the target compounds were designed to incorporate the same amide moiety in VI and VII at position 5 of the indole scaffold connecting one of three different heteroaromatic cycles with the indole core which is substituted with either aromatic or aliphatic moiety. […] In addition, we noticed that the benzyl and benzoyl moieties, bearing the electron-withdrawing 3- or 4-fluoro groups in 4a−f, exerted better inhibition than the pyridylmethyl substituent (4g−i). […] It is also noteworthy to mention that the three different heteroaryl cycles incorporated in our design (pyridazine, pyrazine, and pyridine) were represented in each of the last three compounds.
The inhibitory potencies (IC50 values) of compounds producing inhibition of MAO-B activity by more than 50% were determined using five doses assay with 10, 1, 0.1, 0.01, and 0.001 μM concentrations of the tested compounds. Consequently, analogues 4b and 4e were further evaluated to determine their IC50 over MAO-B in triplicate from the dose response inhibition curves using Sigma-Plot software version 13.0 as indicated in Figure 3.

Series [2] relates to human MAO-B. Further details: method as in PMID 24955776. The note with it: cited from earlier work.
The subject of series [3] is MAO-A. Further details: method as in PMID 24955776. The note with it: cited from earlier work.
Series [4] has as its target T2, hMAO-B enzyme (Homo sapiens, UniProt P27338).
T2 construct: purchased Sigma-Aldrich (St. Louis, MO); host or cells: insect cells
T2 sequence (P27338 1-520): T1 sequence (P27338 1-520)
Put plainly: Kinetic study of MAO-B inhibition mode (Michaelis-Menten, Lineweaver-Burk). The format is biochemical. The method, then: The type of MAO-B inhibition of compound 4e was determined by the Michaelis–Menten kinetic study. The catalytic rates of hMAO-B enzyme in the absence or in the presence of three different concentrations (10, 30, and 100 nM) of compound 4e were measured at seven different concentrations of the benzylamine (0.065, 0.125, 0.25, 0.5, 1, 2, and 4 mM). The corresponding progression curves and the Lineweaver–Burk plots were generated using GraphPad Prism 7 (La Jolla, CA). The maximal velocity (Vmax), the Michaelis constant (Km), and the inhibition constant (Ki) were calculated using SigmaPlot® 13.0 (Palo Alto, CA).
Detailed substrate-dependent kinetic experiments were carried out to examine the mode of MAO-B inhibition of compound 4e. The initial rates of MAO-B inhibition in the absence and presence of 4e were measured at various concentrations of benzylamine, a selective substrate for MAO-B, and both Michaelis–Menten and the Lineweaver–Burk plots are depicted in Figure 4. The Lineweaver–Burk plots for three different concentration of 4e were linear and intersected at the y-axis.

For series [5], the target named is T3, Human recombinant MAO-A (hMAO-A) (Homo sapiens, UniProt P21397).
T3 construct: purchased Sigma-Aldrich (St. Louis, MO); host or cells: insect cells
T3 sequence (P21397 1-527): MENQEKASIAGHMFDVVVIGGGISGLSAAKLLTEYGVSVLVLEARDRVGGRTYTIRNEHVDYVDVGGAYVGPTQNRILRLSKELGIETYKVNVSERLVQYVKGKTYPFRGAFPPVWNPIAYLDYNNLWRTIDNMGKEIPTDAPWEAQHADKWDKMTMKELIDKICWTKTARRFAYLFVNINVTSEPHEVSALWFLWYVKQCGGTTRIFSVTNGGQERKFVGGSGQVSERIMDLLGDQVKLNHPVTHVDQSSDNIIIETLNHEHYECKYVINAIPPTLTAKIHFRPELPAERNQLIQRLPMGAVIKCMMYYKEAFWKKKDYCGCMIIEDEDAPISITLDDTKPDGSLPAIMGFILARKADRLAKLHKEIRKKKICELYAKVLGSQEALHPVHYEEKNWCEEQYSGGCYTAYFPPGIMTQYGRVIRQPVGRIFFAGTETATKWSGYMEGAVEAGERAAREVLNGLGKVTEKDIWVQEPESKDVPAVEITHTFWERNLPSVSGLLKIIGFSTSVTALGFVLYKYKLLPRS
Kind of series: Monoamine oxidase enzyme assay (Amplex Red), MAO-A selectivity assay. The class given is biochemical. Particulars: for inhibition at 100 µM: single dose of 100 µM of compound. The method, then:
as §1
It is known that non-selective (MAO-A/B combined) inhibitors lead to several problems when taken concomitantly with tyramine-containing foods (such as cheese) since the drug's inhibition of MAO-A causes a dangerous elevation of serum tyramine levels, which can cause hypertensive symptoms. […] To calculate the selectivity index (SI: the selectivity for the MAO-B isoform given as the ratio of IC50 (MAO-A)/IC50 (MAO-B)), IC50 values of both compounds have been identified and found to be more than 100 µM. Consequently, the selectivity indices were calculated as illustrated in Table 2.

[6] abbreviates: single dose of 10 µM of compound.

“Also recorded” adds a separate entry of the source. Read-outs that look alike come from different tables or passages of the source.

Regarding `O=C(Nc1ccc2c(ccn2Cc2ccc(F)cc2)c1)c1ccnnc1` [4a, N-(1-(4-fluorobenzyl)-1H-indol-5-yl)pyridazine-4-carboxamide], the melting point (as a rule, the temperature, or range, at which the solid turns liquid) fell in the range of 212.6 to 213.1 °C. For the same compound, the inhibition (in general, the relative decrease from the control value, in per cent) at 10 µM in series [1] (setting [6]) came to 13.2 ± 3.32%.

`O=C(Nc1ccc2c(ccn2C(=O)c2cccc(F)c2)c1)c1cccnc1` [4f, N-(1-(3-fluorobenzoyl)-1H-indol-5-yl)nicotinamide] displayed a melting point of 212.9 to 214.2 °C. Further, the inhibition at 10 µM in series [1] (setting [6]) stood at 30.29 ± 0.24%.

Consider `Cn1cc(C(=O)Nc2ccc3[nH]ncc3c2)ccc1=O` [V], for which, in series [2], the “Activity over human MAO-B (in words)” value was “totally inactive” and the IC50 (usually the midpoint of a concentration-inhibition curve) was more than 10 µM. Also, in series [3], the IC50 is more than 10 µM.

In the case of `Cn1ccc2cc(NC(=O)c3ccnnc3)ccc21` [4j, N-(1-methyl-1H-indol-5-yl)pyridazine-4-carboxamide], the melting point lay within 181.1 to 182 °C. For the same compound, the inhibition at 10 µM in series [1] (setting [6]) stood at 9.52 ± 0.61%.

For `C#CCN[C@@H]1CCc2ccccc21` [rasagiline], the “SI (selectivity index) for MAO-B” value in series [2] (calculated SI) is more than 50.

`O=C(Nc1ccc2c(ccn2Cc2ccccn2)c1)c1ccnnc1` [4g, N-(1-(pyridin-2-ylmethyl)-1H-indol-5-yl)pyridazine-4-carboxamide] had a melting point of 141.8 to 143 °C. Further, in series [1] (setting [6]), the inhibition at 10 µM turned out to be 1.83 ± 0.75%.

On to `O=C(Nc1ccc2c(ccn2Cc2ccccn2)c1)c1cccnc1` [4i, N-(1-(pyridin-2-ylmethyl)-1H-indol-5-yl)nicotinamide], for which the melting point was in the range of 142.9 to 144.3 °C. The inhibition at 10 µM in series [1] (setting [6]) came to 1.81 ± 0.85%.

In turn, `O=C(Nc1ccc2c(ccn2Cc2ccccn2)c1)c1cnccn1` [4h, N-(1-(pyridin-2-ylmethyl)-1H-indol-5-yl)pyrazine-2-carboxamide] displayed a melting point of 152 to 152.9 °C. Moreover, the inhibition at 10 µM in series [1] (setting [6]) is 2.38 ± 0.66%.

For `O=C(Nc1ccc2[nH]ncc2c1)c1c(F)cccc1Cl` [VII], the values for the IC50 in series [2] and in series [3] were 3.3 µM and more than 10 µM, respectively.

As to `O=C(Nc1ccc2c(ccn2Cc2ccc(F)cc2)c1)c1cccnc1` [4c, N-(1-(4-fluorobenzyl)-1H-indol-5-yl)nicotinamide], the melting point was in the range of 200 to 200.4 °C. Moreover, in series [1] (setting [6]), the inhibition at 10 µM was 11.2 ± 0.24%.

Compound `O=C(Nc1ccc2c(ccn2C(=O)c2cccc(F)c2)c1)c1cnccn1` [4e, N-(1-(3-fluorobenzoyl)-1H-indol-5-yl)pyrazine-2-carboxamide] displayed a melting point of 221.3 to 222.2 °C. In addition, the “Mode of MAO-B inhibition” value in series [4] (Lineweaver-Burk plots intersected at the y-axis) is on record as “competitive; also recorded: reversible”. Besides, the Ki (as a rule, a dissociation constant, usually derived from enzyme kinetics or from competition with a known ligand) in series [4] (substrate benzylamine, 10, 30, 100 nM of 4e, read-out: Inhibition constant (Ki) MAO-B) was found to be 0.0945 µM. For the same compound, in series [5], the IC50 is more than 100 µM and the inhibition at 100 µM is 4.76 ± 0.59%. In series [1], the IC50 was 0.78 µM and the “SI (selectivity index), IC50 (MAO-A)/IC50 (MAO-B)” value is more than 120. The inhibition at 10 µM in series [1] (setting [6]) was 66.4 ± 0.79%.

In the case of `O=C(Nc1ccc2[nH]ncc2c1)c1cccc(Cl)c1Cl` [VI], the IC50 was 2.59 µM in series [2] and more than 10 µM in series [3].

In the case of `Cn1ccc2cc(NC(=O)c3cnccn3)ccc21` [4k, N-(1-methyl-1H-indol-5-yl)pyrazine-2-carboxamide], the melting point fell in the range of 172.5 to 174 °C. In addition, the inhibition at 10 µM in series [1] (setting [6]) came out at 49.7 ± 0.68%.

Compound `O=C(Nc1ccc2c(ccn2C(=O)c2cccc(F)c2)c1)c1ccnnc1` [4d, N-(1-(3-fluorobenzoyl)-1H-indol-5-yl)pyridazine-4-carboxamide] showed a melting point of 196.7 to 196.9 °C. Moreover, the inhibition at 10 µM in series [1] (setting [6]) came out at 19.1 ± 0.47%.

Compound `Cn1ccc2cc(NC(=O)c3cccnc3)ccc21` [4l, N-(1-methyl-1H-indol-5-yl)nicotinamide] came in with a melting point of 164.2 to 164.9 °C. Besides, the inhibition at 10 µM in series [1] (setting [6]) turned out to be 11.6%.

As for `O=C(Nc1ccc2c(ccn2Cc2ccc(F)cc2)c1)c1cnccn1` [4b, N-(1-(4-fluorobenzyl)-1H-indol-5-yl)pyrazine-2-carboxamide], in series [5], the IC50 is more than 100 µM and the inhibition at 100 µM came to 12.9 ± 1.09%. For the same compound, in series [1], the IC50 came out at 1.65 µM; the inhibition at 10 µM is 88.49 ± 0.13%; the “SI (selectivity index), IC50 (MAO-A)/IC50 (MAO-B)” value is more than 60.
